Test results reported in patent US8158851B2, “Transgenic high tryptophan plants” (Monsanto Technology LLC, priority 2002, dated 2012).
Read-outs that look alike come from different tables or passages of the source.

Legend:
[1] = target: T1, Agrobacterium tumefaciens anthranilate synthase (AgroAS), wild type, SEQ ID NO: 4 (Agrobacterium fabrum, UniProt A9CI26); assay: Anthranilate synthase assay, anthranilate formation by absorbance at 320 nm; format: biochemical; settings: 25° C.
T1 construct: no tag mentioned
Experimental: (§1) Agrobacterium tumefaciens AS wild type and mutant enzymes were expressed in E. coli as described in Example 1. The purification of all the Agrobacterium tumefaciens AS enzymes, including wild type and mutants thereof, was performed at 4° C. The cells (approximate wet weight of 1 g) were suspended in 20 ml of purification buffer (50 mM potassium phosphate, pH 7.3, 10 mM MgCl2, 10 mM 2-mercaptoethanol, 10% glycerol) and lysed by ultrasonication (Branson sonifier Cell Disruptor, W185). Supernatant was collected after centrifugation of the homogenate at 20,000×g for 15 min. The supernatant was subjected to ammonium sulfate fractionation (30 to 65% saturation). The precipitate was collected after centrifugation at 20,000×g for 15 min and dissolved in 3 ml of the purification buffer and then loaded as a whole on an Econo-Pac 10DG desalting column, pre-equilibrated with the same buffer. Fractions containing the enzyme were detected by the developed assay and pooled. The pooled enzyme (4.3 mls) was loaded on a 10 ml DEAF Sephacel (Pharmacia Biotech) column (1.5×7.5 cm) equilibrated with the same buffer. The column was washed with 30 ml of the purification buffer and the enzyme was eluted with 30 ml of 50 mM NaCl in the same buffer. Fractions containing high AS activity were pooled and precipitated by 65% ammonium sulfate saturation and isolated and desalted as above. Fractions containing the enzyme were pooled and stored at −80° C.
The standard assay for Agrobacterium tumefaciens AS was performed at 25° C. in an assay buffer containing 100 mM potassium phosphate, pH 7.0, 10 mM MgCl2, 1 mM dithiothreitol, 200 μM chorismate and 10 mM L-glutamine. The reaction was started by adding 30 μl of enzyme to the reaction mixture and mixing. The formation of anthranilate was directly monitored by the absorbance increase at 320 m for 3 minutes. Initial rate of reaction was calculated as unit absorbance increase per second based on the slope of the absorbance change over the reaction time. Km for chorismate (Km^Cho) was determined in the total volume of 1 ml assay buffer containing 100 mM potassium phosphate, pH 7.0, 10 mM MgCl2, 1 mM dithiothreitol with 10 mM L-glutamine and varying the concentration of chorismate between 2.5-100 μM chorismate. The Km for glutamine (Km^Gln) was determined in the total volume of 1 ml assay buffer containing 100 mM potassium phosphate, pH 7.0, 10 mM MgCl2, 1 mM dithiothreitol with 200 μM chorismate and varying the concentration of L-glutamine between 0.1-2 mM L-glutamine. […] Kinetic parameters and IC50 of AS were calculated after fitting the data to a non-linear regression program (GraFit).

[2] = target: T2, Agrobacterium tumefaciens anthranilate synthase V48F mutant, SEQ ID NO: 58 (Agrobacterium fabrum, UniProt A9CI26, V48F); assay: Anthranilate synthase assay, V48F mutant; format: biochemical; settings: 25° C.
T2 construct: no tag mentioned
Source text: (§2) Site directed mutagenesis was used to generate ten single amino acid substitutions six sites. The mutations were introduced into the Agrobacterium tumefaciens AS in pMON34705 using the QuikChange™ Site-Directed Mutagenesis Kit (Stratagene). The primers used for site directed mutagenesis were SEQ ID NOs: 9-42 (FIG. 7; F=forward, R=reverse). Each primer sequence is specific for alteration of the nucleic acid at a specific location in the sequence and thus changing the encoded codon to code for a new amino acid. For example, S51C designates a change from serine to cysteine at amino acid position 51 in the Agrobacterium tumefaciens AS peptide sequence.
(§3) Following mutagenesis the sequence of the entire gene was reconfirmed and the variants expressed and purified from E. coli as described below for the wild type enzyme. The resultant plasmids comprising mutant Agrobacterium tumefaciens AS are suitably cloned into a plasmid for overproduction of protein using the T7 expression system as described in Example 1.
as §1, with “The column was washed with 30 ml of the purification buffer and the enzyme was eluted with 30 ml of 50 mM NaCl in the same buffer. Fractions containing high AS activity were pooled and precipitated by 65% ammonium sulfate saturation and isolated and desalted as above. Fractions containing the enzyme were pooled and stored at −80° C.” left out
(§4) The standard assay for Agrobacterium tumefaciens AS was performed at 25° C. in an assay buffer containing 100 mM potassium phosphate, pH 7.0, 10 mM MgCl2, 1 mM dithiothreitol, 200 μM chorismate and 10 mM L-glutamine. […] The formation of anthranilate was directly monitored by the absorbance increase at 320 m for 3 minutes. Initial rate of reaction was calculated as unit absorbance increase per second based on the slope of the absorbance change over the reaction time. […] Kinetic parameters and IC50 of AS were calculated after fitting the data to a non-linear regression program (GraFit).

[3] = target: T3, Agrobacterium tumefaciens anthranilate synthase V48Y mutant, SEQ ID NO: 59 (Agrobacterium fabrum, UniProt A9CI26, V48Y); assay: Anthranilate synthase assay, V48Y mutant; format: biochemical; settings: 25° C.
T3 construct: no tag mentioned
Source text: as §2, §3
as §1, with “The column was washed with 30 ml of the purification buffer and the enzyme was eluted with 30 ml of 50 mM NaCl in the same buffer. Fractions containing high AS activity were pooled and precipitated by 65% ammonium sulfate saturation and isolated and desalted as above. Fractions containing the enzyme were pooled and stored at −80° C.” left out
as §4

[4] = target: T4, Agrobacterium tumefaciens anthranilate synthase S50K mutant, SEQ ID NO: 69 (Agrobacterium fabrum, UniProt A9CI26, S50K); assay: Anthranilate synthase assay, S50K mutant; format: biochemical; settings: 25° C.
T4 construct: no tag mentioned
Source text: as §2, §3
as §1, with “The column was washed with 30 ml of the purification buffer and the enzyme was eluted with 30 ml of 50 mM NaCl in the same buffer. Fractions containing high AS activity were pooled and precipitated by 65% ammonium sulfate saturation and isolated and desalted as above. Fractions containing the enzyme were pooled and stored at −80° C.” left out
as §4

[5] = target: T5, Agrobacterium tumefaciens anthranilate synthase S51F mutant, SEQ ID NO: 60 (Agrobacterium fabrum, UniProt A9CI26, S51F); assay: Anthranilate synthase assay, S51F mutant; format: biochemical; settings: 25° C.
T5 construct: no tag mentioned
Source text: as §2, §3
as §1, with “The column was washed with 30 ml of the purification buffer and the enzyme was eluted with 30 ml of 50 mM NaCl in the same buffer. Fractions containing high AS activity were pooled and precipitated by 65% ammonium sulfate saturation and isolated and desalted as above. Fractions containing the enzyme were pooled and stored at −80° C.” left out
as §4

[6] = target: T6, Agrobacterium tumefaciens anthranilate synthase S51C mutant, SEQ ID NO: 61 (Agrobacterium fabrum, UniProt A9CI26, S51C); assay: Anthranilate synthase assay, S51C mutant; format: biochemical; settings: 25° C.
T6 construct: no tag mentioned
Source text: as §2, §3
as §1, with “The column was washed with 30 ml of the purification buffer and the enzyme was eluted with 30 ml of 50 mM NaCl in the same buffer. Fractions containing high AS activity were pooled and precipitated by 65% ammonium sulfate saturation and isolated and desalted as above. Fractions containing the enzyme were pooled and stored at −80° C.” left out
as §4

[7] = target: T7, Agrobacterium tumefaciens anthranilate synthase N52F mutant, SEQ ID NO: 62 (Agrobacterium fabrum, UniProt A9CI26, N52F); assay: Anthranilate synthase assay, N52F mutant; format: biochemical; settings: 25° C.
T7 construct: no tag mentioned
Source text: as §2, §3
as §1, with “The column was washed with 30 ml of the purification buffer and the enzyme was eluted with 30 ml of 50 mM NaCl in the same buffer. Fractions containing high AS activity were pooled and precipitated by 65% ammonium sulfate saturation and isolated and desalted as above. Fractions containing the enzyme were pooled and stored at −80° C.” left out
as §4

[8] = target: T8, Agrobacterium tumefaciens anthranilate synthase P293A mutant, SEQ ID NO: 63 (Agrobacterium fabrum, UniProt A9CI26, P293A); assay: Anthranilate synthase assay, P293A mutant; format: biochemical; settings: 25° C.
T8 construct: no tag mentioned
Source text: as §2, §3
as §1, with “The column was washed with 30 ml of the purification buffer and the enzyme was eluted with 30 ml of 50 mM NaCl in the same buffer. Fractions containing high AS activity were pooled and precipitated by 65% ammonium sulfate saturation and isolated and desalted as above. Fractions containing the enzyme were pooled and stored at −80° C.” left out
as §4

[9] = target: T9, Agrobacterium tumefaciens anthranilate synthase P293G mutant, SEQ ID NO: 64 (Agrobacterium fabrum, UniProt A9CI26, P293G); assay: Anthranilate synthase assay, P293G mutant; format: biochemical; settings: 25° C.
T9 construct: no tag mentioned
Source text: as §2, §3
as §1, with “The column was washed with 30 ml of the purification buffer and the enzyme was eluted with 30 ml of 50 mM NaCl in the same buffer. Fractions containing high AS activity were pooled and precipitated by 65% ammonium sulfate saturation and isolated and desalted as above. Fractions containing the enzyme were pooled and stored at −80° C.” left out
as §4

soy seed = assay: Free amino acid analysis of soy seed (tryptophan content); format: in vivo, Glycine max; settings: R1 soy seeds expressing the mutant protein
Experimental: Amino Acid Extraction: About 50 mg of crushed soy seed (5 mg of Arabidopsis) material was placed in each centrifuge vial. One milliliter of 5% trichloroacetic acid was added to each sample (100 μl for Arabidopsis). The samples were vortexed, and allowed to sit, with agitation, at room temperature for 15 min. They were then microcentrifuged for 15 min at 14000 rpm. Some of the supernatant was then removed, placed in a HPLC vial and sealed. Samples were kept at 4° C. in the analysis queue.
Amino Acid Analysis: The reagents utilized for amino acid analysis included the OPA reagent (o-phthalaldehyde and 3-mercaptopropionic acid in borate buffer (Hewlett-Packard, PN 5061-3335)) where the borate buffer (0.4 N in water, pH 10.2). The analysis was performed using the Agilent 1100 series HPLC system as described in the Agilent Technical Publication, “Amino Acid Analysis Using Zorbax Eclipse-AAA Columns and the Agilent 1100 HPLC”, Mar. 17, 2000. First, 0.5 μl of the sample was derivatized with 2.5 μl of OPA reagent in 10 μl of borate buffer. Second, the derivative is injected onto a Eclipse XDB-C18 5 μm, 4.6×150 mm column using a flow rate of 1.2 ml/min. Amino acid concentrations were measured using fluorescence: excitation at 340 nm, emission at 450 nm. Elution was with a gradient of HPLC Buffers A and B according to Table A, where HPLC Buffer A was 40 mM Na2HPO4, pH=7.8 and HPLC Buffer B was 9:9:2::Methanol:Acetonitrile:Water.
Amino acid standards were prepared from the dry chemicals, using all amino acids of interest. Proline analysis required an additional derivatization step with 9-fluorenylmethyl-chloroformate (FMOC). Amino acid standards were also sometimes purchased in concentrations ranging from 0 to 100 μg/ml. Samples were reported in μg/g of seed powder.
Mature R1 seed is produced and analyzed for free amino acid content using fluorescence detection as described in Agilent Technologies Technical Bulletin REV14. Five seeds are chosen for single seed analysis from each event. […] The highest levels of tryptophan have a negative impact on germination.

[10] = pH 7.0, 200 μM chorismate, 0.1-2 mM L-glutamine, read-out: Km for glutamine (Km^Gln)
[11] = pH 7.0, 10 mM L-glutamine, 2.5-100 μM chorismate, read-out: Km for chorismate (Km^Cho)

T4 sequence (A9CI26 whole entry S50K): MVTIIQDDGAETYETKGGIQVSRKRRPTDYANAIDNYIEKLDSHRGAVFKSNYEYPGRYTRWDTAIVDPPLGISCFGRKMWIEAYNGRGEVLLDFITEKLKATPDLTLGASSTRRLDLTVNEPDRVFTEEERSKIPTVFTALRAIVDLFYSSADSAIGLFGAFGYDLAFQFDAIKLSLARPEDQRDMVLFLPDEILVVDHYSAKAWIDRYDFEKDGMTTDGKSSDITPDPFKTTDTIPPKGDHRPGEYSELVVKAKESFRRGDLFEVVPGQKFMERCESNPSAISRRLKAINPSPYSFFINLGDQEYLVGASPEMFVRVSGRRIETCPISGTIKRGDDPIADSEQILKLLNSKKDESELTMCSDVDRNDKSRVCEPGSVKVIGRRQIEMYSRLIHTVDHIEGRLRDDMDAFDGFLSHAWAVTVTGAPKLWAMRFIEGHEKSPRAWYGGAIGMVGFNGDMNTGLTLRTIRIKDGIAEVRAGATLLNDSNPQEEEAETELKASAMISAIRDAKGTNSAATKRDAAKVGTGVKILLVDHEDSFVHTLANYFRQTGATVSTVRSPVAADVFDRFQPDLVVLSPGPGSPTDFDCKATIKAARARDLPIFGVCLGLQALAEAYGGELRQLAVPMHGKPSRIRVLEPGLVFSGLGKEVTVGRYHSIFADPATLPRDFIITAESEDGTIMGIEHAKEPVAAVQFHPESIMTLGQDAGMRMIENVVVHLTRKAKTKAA
T8 sequence (A9CI26 whole entry P293A): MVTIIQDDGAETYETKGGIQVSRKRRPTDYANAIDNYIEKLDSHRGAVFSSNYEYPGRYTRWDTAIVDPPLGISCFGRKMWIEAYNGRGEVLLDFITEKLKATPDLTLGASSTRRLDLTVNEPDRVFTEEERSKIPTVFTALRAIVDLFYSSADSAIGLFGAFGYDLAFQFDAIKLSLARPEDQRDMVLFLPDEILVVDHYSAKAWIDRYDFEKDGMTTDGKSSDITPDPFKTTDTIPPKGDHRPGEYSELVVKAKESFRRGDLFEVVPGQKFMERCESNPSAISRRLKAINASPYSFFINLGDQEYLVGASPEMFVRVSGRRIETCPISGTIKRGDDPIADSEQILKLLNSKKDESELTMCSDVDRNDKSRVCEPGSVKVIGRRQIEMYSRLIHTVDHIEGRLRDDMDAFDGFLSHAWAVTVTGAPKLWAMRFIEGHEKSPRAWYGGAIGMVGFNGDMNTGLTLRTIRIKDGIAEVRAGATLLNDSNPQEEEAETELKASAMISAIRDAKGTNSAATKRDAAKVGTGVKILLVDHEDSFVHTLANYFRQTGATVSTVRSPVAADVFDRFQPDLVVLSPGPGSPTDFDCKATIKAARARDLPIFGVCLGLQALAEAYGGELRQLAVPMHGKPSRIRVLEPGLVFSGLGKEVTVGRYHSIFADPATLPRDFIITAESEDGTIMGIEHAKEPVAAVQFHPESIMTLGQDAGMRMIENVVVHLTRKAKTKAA
T7 sequence (A9CI26 whole entry N52F): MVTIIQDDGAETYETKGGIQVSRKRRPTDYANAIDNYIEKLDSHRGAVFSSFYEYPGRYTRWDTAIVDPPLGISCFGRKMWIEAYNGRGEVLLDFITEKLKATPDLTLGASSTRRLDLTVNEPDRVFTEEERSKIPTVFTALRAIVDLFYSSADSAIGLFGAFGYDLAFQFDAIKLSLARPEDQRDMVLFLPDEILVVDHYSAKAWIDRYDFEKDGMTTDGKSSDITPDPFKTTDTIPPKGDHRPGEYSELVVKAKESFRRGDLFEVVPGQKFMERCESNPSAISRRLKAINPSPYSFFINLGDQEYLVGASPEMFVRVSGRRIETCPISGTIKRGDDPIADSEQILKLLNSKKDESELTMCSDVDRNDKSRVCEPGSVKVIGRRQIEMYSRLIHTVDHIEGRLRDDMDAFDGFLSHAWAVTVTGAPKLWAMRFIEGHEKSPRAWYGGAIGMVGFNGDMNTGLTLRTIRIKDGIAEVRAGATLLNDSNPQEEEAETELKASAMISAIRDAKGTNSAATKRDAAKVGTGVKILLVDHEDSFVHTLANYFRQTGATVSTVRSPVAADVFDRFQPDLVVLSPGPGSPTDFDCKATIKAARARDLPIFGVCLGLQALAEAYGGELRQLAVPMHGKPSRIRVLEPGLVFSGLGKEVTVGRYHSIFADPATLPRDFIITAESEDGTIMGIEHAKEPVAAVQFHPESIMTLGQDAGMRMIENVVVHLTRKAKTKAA
T6 sequence (A9CI26 whole entry S51C): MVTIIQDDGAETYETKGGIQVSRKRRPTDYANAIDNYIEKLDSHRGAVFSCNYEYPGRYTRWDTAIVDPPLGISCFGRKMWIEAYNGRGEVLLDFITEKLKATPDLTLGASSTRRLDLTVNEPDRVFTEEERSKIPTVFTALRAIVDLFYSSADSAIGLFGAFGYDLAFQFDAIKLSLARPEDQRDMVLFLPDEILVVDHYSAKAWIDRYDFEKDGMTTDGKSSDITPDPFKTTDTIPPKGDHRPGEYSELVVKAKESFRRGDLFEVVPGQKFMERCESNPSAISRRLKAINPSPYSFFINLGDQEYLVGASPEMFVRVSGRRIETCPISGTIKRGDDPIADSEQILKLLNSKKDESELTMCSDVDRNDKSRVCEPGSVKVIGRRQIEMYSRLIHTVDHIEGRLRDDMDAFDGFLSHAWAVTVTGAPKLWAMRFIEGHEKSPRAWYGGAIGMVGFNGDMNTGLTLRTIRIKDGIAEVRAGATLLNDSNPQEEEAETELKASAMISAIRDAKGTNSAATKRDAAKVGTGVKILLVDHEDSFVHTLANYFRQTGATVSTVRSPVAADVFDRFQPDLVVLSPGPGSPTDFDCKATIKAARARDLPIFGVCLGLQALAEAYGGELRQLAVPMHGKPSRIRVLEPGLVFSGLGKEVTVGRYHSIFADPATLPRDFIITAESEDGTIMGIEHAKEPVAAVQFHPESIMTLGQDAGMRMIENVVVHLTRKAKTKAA
T9 sequence (A9CI26 whole entry P293G): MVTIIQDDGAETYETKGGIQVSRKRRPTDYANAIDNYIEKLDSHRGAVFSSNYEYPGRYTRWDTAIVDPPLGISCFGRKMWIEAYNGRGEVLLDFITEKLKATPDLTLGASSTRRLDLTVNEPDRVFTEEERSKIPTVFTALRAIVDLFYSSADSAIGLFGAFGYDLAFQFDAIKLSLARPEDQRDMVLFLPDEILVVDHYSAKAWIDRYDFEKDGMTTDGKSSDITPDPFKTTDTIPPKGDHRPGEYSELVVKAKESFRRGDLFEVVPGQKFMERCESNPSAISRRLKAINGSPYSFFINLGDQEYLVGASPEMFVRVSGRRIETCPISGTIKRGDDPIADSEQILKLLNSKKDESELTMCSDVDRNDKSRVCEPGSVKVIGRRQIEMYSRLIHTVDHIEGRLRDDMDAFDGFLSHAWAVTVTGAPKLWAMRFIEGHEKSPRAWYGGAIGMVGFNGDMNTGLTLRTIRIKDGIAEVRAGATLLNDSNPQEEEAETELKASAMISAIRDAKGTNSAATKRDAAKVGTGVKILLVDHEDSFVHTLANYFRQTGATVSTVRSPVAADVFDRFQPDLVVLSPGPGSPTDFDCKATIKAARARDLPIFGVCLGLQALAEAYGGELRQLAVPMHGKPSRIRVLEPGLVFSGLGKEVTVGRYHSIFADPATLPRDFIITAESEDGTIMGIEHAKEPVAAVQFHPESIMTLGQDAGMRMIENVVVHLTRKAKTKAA
T1 sequence (A9CI26 entry or part of it): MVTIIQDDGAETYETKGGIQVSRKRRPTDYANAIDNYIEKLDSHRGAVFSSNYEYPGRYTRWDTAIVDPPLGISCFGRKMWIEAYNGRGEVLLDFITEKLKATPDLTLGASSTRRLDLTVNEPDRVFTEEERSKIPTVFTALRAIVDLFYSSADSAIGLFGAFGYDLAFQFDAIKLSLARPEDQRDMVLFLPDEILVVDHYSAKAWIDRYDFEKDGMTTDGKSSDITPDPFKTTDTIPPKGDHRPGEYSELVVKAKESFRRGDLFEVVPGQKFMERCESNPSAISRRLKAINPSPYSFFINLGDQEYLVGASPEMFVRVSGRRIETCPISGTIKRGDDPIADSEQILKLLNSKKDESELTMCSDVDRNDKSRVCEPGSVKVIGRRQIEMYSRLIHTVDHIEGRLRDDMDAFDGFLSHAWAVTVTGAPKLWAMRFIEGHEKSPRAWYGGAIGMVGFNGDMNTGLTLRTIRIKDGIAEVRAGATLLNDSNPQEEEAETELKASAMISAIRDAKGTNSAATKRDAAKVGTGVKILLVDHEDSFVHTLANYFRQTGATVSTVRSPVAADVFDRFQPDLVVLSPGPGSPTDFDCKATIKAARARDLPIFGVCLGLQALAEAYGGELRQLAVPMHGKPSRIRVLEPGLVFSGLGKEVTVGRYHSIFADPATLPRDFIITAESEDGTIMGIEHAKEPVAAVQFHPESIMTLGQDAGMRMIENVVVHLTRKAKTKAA

NC(=O)CC[C@H](N)C(=O)O [glutamine, L-glutamine]
Km [1, 10]: 110 µM | Km [2, 10]: 80 µM | Km [3, 10]: 100 µM | Km [4, 10]: 10 µM | Km [5, 10]: 60 µM | Km [6, 10]: 80 µM | Km [7, 10]: 40 µM | Km [8, 10]: 160 µM | Km [9, 10]: 70 µM

C=C(O[C@@H]1C=C(C(=O)O)C=C[C@H]1O)C(=O)O [chorismate]
kcat ([1]; pH 7.0): 0.43 s⁻¹ | kcat/Km^Cho ([1]; pH 7.0): 53700 M⁻¹ s⁻¹ | Km [1, 11]: 8 µM | kcat ([2]; pH 7.0): 0.24 s⁻¹ | kcat/Km^Cho ([2]; pH 7.0): 53300 M⁻¹ s⁻¹ | Km [2, 11]: 4.5 µM | kcat ([3]; pH 7.0): 0.18 s⁻¹ | kcat/Km^Cho ([3]; pH 7.0): 42800 M⁻¹ s⁻¹ | Km [3, 11]: 4.2 µM | kcat ([4]; pH 7.0): 0.13 s⁻¹ | kcat/Km^Cho ([4]; pH 7.0): 10000 M⁻¹ s⁻¹ | Km [4, 11]: 13 µM | kcat ([5]; pH 7.0): 0.08 s⁻¹ | kcat/Km^Cho ([5]; pH 7.0): 8000 M⁻¹ s⁻¹ | Km [5, 11]: 10 µM | kcat ([6]; pH 7.0): 0.15 s⁻¹ | kcat/Km^Cho ([6]; pH 7.0): 53600 M⁻¹ s⁻¹ | Km [6, 11]: 2.8 µM | kcat ([7]; pH 7.0): 0.21 s⁻¹ | kcat/Km^Cho ([7]; pH 7.0): 38200 M⁻¹ s⁻¹ | Km [7, 11]: 5.5 µM | kcat ([8]; pH 7.0): 0.35 s⁻¹ | kcat/Km^Cho ([8]; pH 7.0): 14600 M⁻¹ s⁻¹ | Km [8, 11]: 24 µM | kcat ([9]; pH 7.0): 0.48 s⁻¹ | kcat/Km^Cho ([9]; pH 7.0): 14500 M⁻¹ s⁻¹ | Km [9, 11]: 33 µM

B1: V48F (protein)
chain: MVTIIQDDGAETYETKGGIQVSRKRRPTDYANAIDNYIEKLDSHRGAFFSSNYEYPGRYTRWDTAIVDPPLGISCFGRKMWIEAYNGRGEVLLDFITEKLKATPDLTLGASSTRRLDLTVNEPDRVFTEEERSKIPTVFTALRAIVDLFYSSADSAIGLFGAFGYDLAFQFDAIKLSLARPEDQRDMVLFLPDEILVVDHYSAKAWIDRYDFEKDGMTTDGKSSDITPDPFKTTDTIPPKGDHRPGEYSELVVKAKESFRRGDLFEVVPGQKFMERCESNPSAISRRLKAINPSPYSFFINLGDQEYLVGASPEMFVRVSGRRIETCPISGTIKRGDDPIADSEQILKLLNSKKDESELTMCSDVDRNDKSRVCEPGSVKVIGRRQIEMYSRLIHTVDHIEGRLRDDMDAFDGFLSHAWAVTVTGAPKLWAMRFIEGHEKSPRAWYGGAIGMVGFNGDMNTGLTLRTIRIKDGIAEVRAGATLLNDSNPQEEEAETELKASAMISAIRDAKGTNSAATKRDAAKVGTGVKILLVDHEDSFVHTLANYFRQTGATVSTVRSPVAADVFDRFQPDLVVLSPGPGSPTDFDCKATIKAARARDLPIFGVCLGLQALAEAYGGELRQLAVPMHGKPSRIRVLEPGLVFSGLGKEVTVGRYHSIFADPATLPRDFIITAESEDGTIMGIEHAKEPVAAVQFHPESIMTLGQDAGMRMIENVVVHLTRKAKTKAA
modifications: An A. tumefaciens mutant.
amounts of tryptophan (soy seed): very high amounts of tryptophan
